Measured values as given in patent EP1290011B1 (Oncopeptides AB, priority 2000, dated 2001).
pIC50: −log10 of the molar value. Structures can show the parent of a compound that is named as a salt.

Tests used:
8226Dox40 = assay: cells; assay type: cell-based, human; conditions: 8226Dox40, doxorubicin resistance; 72 hours incubation; read-out: IC50
H69 = assay: cells; assay type: cell-based, human; conditions: H69, small cell lung cancer; 72 hours incubation; read-out: IC50
Ovarian carcinoma = assay: Cytotoxic activity in different tumour models; assay type: cell-based, human; conditions: Number 8
NSC Lung cancer = assay: Cytotoxic activity in different tumour models; assay type: cell-based, human; conditions: Number 8
[1] = system: Hematological tumours (PHTC); assay: FMCA in PHTC cultures, Table 4, hematological; conditions: 4 µM; n=7-11; 4320 min
Solid tumours (PHTC) = assay: FMCA in PHTC cultures, Table 4, solid; conditions: 4 µM; n=12-20; 4320 min
ACHN = assay: cells; assay type: cell-based, human; conditions: ACHN, primary resistant renal carcinoma; 72 hours incubation; read-out: IC50
[2] = system: hematological fresh human tumour specimens (PHTC); conditions: 0.66 µM; n=42; 4320 min
8226S = assay: cells; assay type: cell-based, human; conditions: 8226S, myeloma; 72 hours incubation; read-out: IC50
Breast cancer = assay: Cytotoxic activity in different tumour models; assay type: cell-based, human; conditions: Number 4
CEM/R = assay: cells; assay type: cell-based, human; conditions: CEM/R; 72 hours incubation; read-out: IC50
H69AR = assay: cells; assay type: cell-based, human; conditions: H69AR, doxorubicin resistance; 72 hours incubation; read-out: IC50
U937gtb = assay: cells; assay type: cell-based, human; conditions: U937gtb, lymphoma; 72 hours incubation; read-out: IC50
CEM/S = assay: cells; assay type: cell-based, human; conditions: CEM/S; 72 hours incubation; read-out: IC50
Prostate cancer = assay: Cytotoxic activity in different tumour models; assay type: cell-based, human; conditions: Number 1
Corpus cancer = assay: Cytotoxic activity in different tumour models; assay type: cell-based, human; conditions: Number 4
8226LR5 = assay: cells; assay type: cell-based, human; conditions: 8226LR5, melphalan resistance; 72 hours incubation; read-out: IC50
RPMI 8322 melanoma cells = conditions: compared with the other peptides of PTC; cited from earlier work
[3] = system: PHTC samples from 9 patients with hematological and 18 patients with solid tumours; assay: Circumvention of melphalan resistance: FMCA classification of PHTC samples as LDR, IDR, EDR; assay type: cell-based, human; conditions: tested at 4 µM
Adeno-carcinoma = assay: Cytotoxic activity in different tumour models; assay type: cell-based, human; conditions: Number 5
[4] = system: solid tumour fresh human tumour specimens (PHTC); conditions: 0.66 µM; n=22; 4320 min
[5] = system: fresh human tumour specimens; assay: FMCA cytotoxic activity in 27 fresh human tumour specimens (Figure 2); assay type: cell-based; conditions: 27 human tumour samples, 14 hematological and 13 solid, comparative statement
[6] = system: panel of ten human tumour cell lines; assay: cells; assay type: cell-based; conditions: mean over the ten cell lines; read-out: MEAN IC50
[7] = system: primary cultures of human tumor cells from patients (PHTC), Total; assay: FMCA in PHTC cultures, Table 4, total; conditions: 4 µM; n=19-31; 4320 min
U937vcr = assay: cells; assay type: cell-based, human; conditions: U937vcr, vincristine resistance; 72 hours incubation; read-out: IC50
[8] = system: oxidative phosphorylation in mitochondria from rat liver homogenates and Jensen sarcoma cells; conditions: cited from earlier work
sarcoma 45 = conditions: rat, in vivo; cited from earlier work

CCOC(=O)[C@H](Cc1ccc(F)cc1)NC(=O)[C@H](Cc1cccc(N(CCCl)CCCl)c1)NC(=O)[C@@H]1CCCN1 [Example P2, L-prolyl-m-L-sarcolysyl-p-L-fluorophenylalanine ethyl ester hydrochloride, reference compound]
pIC50 (8226Dox40): 5.27 | pIC50 (H69): 5.34 | Median response at 4.0 µM >50% reduction in tumour cell survival (Ovarian carcinoma): No | Median response at 4.0 µM >50% reduction in tumour cell survival (NSC Lung cancer): No | Tumour cell survival index (%) Hematological tumours [1]: 7% | Tumour cell survival index (%) Solid tumours (Solid tumours (PHTC)): 68.9% | pIC50 (ACHN): 5.34 | Tumour cell survival index % Hematological [2]: 34.7% | pIC50 (8226S): 5.29 | Median response at 4.0 µM >50% reduction in tumour cell survival (Breast cancer): No | pIC50 (CEM/R): 6.20 | pIC50 (H69AR): 5.37 | pIC50 (U937gtb): 5.75 | pIC50 (CEM/S): 6.03 | Median response at 4.0 µM >50% reduction in tumour cell survival (Prostate cancer): No | Median response at 4.0 µM >50% reduction in tumour cell survival (Corpus cancer): No | pIC50 (8226LR5): 5.13 | cytotoxicity (RPMI 8322 melanoma cells): more toxic to RPMI 8322 melanoma cells than any of the other peptides | Number of samples EDR ([3]; Extreme drug resistance): 1 | Number of samples (%) EDR ([3]; Extreme drug resistance, percent of samples): 5% | Number of samples IDR ([3]; Intermediate drug resistance): 4 | Number of samples (%) IDR ([3]; Intermediate drug resistance, percent of samples): 21% | Number of samples LDR ([3]; Low drug resistance): 14 | Number of samples (%) LDR ([3]; Low drug resistance, percent of samples): 74% | Median response at 4.0 µM >50% reduction in tumour cell survival (Adeno-carcinoma): No | Tumour cell survival index % Solid [4]: 86.0% | IC50s (comparison) [5]: more active than melphalan | pIC50 [6]: 5.47 | Tumour cell survival index (%) Total [7]: 46.1% | pIC50 (U937vcr): 5.75

CC(C)[C@H](NC(=O)[C@@H](N)Cc1ccc(N(CCCl)CCCl)cc1)C(=O)O [L-melphalanyl-L-valine]
oxidative phosphorylation [8]: disrupted oxidative phosphorylation

CCOC(=O)[C@H](Cc1ccc(O)cc1)NC(=O)[C@H](Cc1ccc(N(CCCl)CCCl)cc1)NC(C)=O [astyron, N-acetyl-L-melphalanyl-L-tyrosine ethyl ester]
sarcoma 45 growth (sarcoma 45): inhibited sarcoma 45 growth
